Source: US8709511B2, “External preparation composition for skin comprising ginseng flower or ginseng seed extracts” (Amorepacific Corporation, priority 2008, dated 2014)

Tests used:
[1] = tested on: C57BL/6 mouse melanocytes (Mel-Ab cells); test: Melanin synthesis inhibition using mouse melanocytes (Dooley's method); assay type: cell-based; conditions: 72 h, 3 days
Protocol: Mouse melanocytes were used to examine the melanin synthesis inhibitory effect of the ginseng flower extract prepared in Example 1, the ginseng seed oil prepared in Example 2 and the ginseng seed residue extract prepared in Example 3.
First, C57BL/6 mouse melanocytes (Mel-Ab cells; Dooley, T. P. et al., Skin Pharmacol., 7, pp. 188-200) were cultured in Dulbecco's modified Eagle's medium (DMEM) containing 10% fetal bovine serum, 100 nM 2-O-tetradecanoylphorbol-13-acetate and 1 nM cholera toxin under the condition of 37° C. and 5% CO2 . The cultured Mel-Ab cells were detached with 0.25% trypsin-EDTA and cultured in a 24-well culture plate at a concentration of 10^5 cells/well. Then, from day 2 of culture, each of 10 ppm, 50 ppm and 100 ppm of the ginseng flower extract (Example 1), the ginseng seed oil (Example 2) and the ginseng seed residue extract (Example 3) was continuously added thereto and cultured for 3 days. The positive control group was treated with arbutin (Sigma Co.). Then, the culture media were removed, and the cells were washed with PBS and lysed with 1 N sodium hydroxide. The lysed cells were measured for absorbance at 400 nm, and then the inhibition of melanin production was calculated according to Equation 2. […] Melanin synthesis inhibition (%)=100−[(Absorbance of each test material/Absorbance of control)×100] […]

[2] = tested on: UVB-darkened human skin (upper arm); test: Whitening on human skin after UVB-induced darkening (colorimeter); assay type: in vivo; conditions: applied on UVB-irradiated upper arm for 10 weeks; vehicle 0.51 ± 0.13
Protocol: In order to examine the whitening effect of the ginseng flower extract prepared in Example 1, the ginseng seed oil prepared in Example 2 and the ginseng seed residue extract prepared in Example 3 on human skin, the following test was carried out.
First, for 12 healthy men, a 1.5-cm perforated opaque tape was attached to the upper arm portion of the subjects, and then the attached portion was irradiated with UVB at a dose of about 1.5-2 times the minimal erythemal dose of each subject to induce skin darkening.
The color of the skin was measured with the colorimeter CR2002 (Minolta, Japan) at 1-week intervals.
Then, the difference in skin color (ΔL*) between the time point of initiation of application and the time point of completion of application of each test material was calculated according to Equation 3, and the calculation results are shown in Table 8. The whitening effect is evaluated by measuring the ΔL* value between the sample-applied portion and the control portion. […] L*=L* value at the time of completion of application−L* value at the time of initiation of application [Equation 3]

[3] = tested on: matrix metalloproteinase 1 (MMP-1) in human fibroblasts; test: Inhibition of UVB-induced MMP-1 expression (ELISA); assay type: cell-based; conditions: UVB 40 mJ/cm^2, 10 μM, 2 days; non-UV = 100, UV alone 152
Protocol: Human fibroblasts were cultured in a 12-well culture plate at a concentration of 10^5 cells/well, and then irradiated with 40 mJ/cm ^2 of UVB. Then, the culture medium was replaced with media containing 1 ppm, 10 ppm and 50 ppm of the ginseng flower extract prepared in Example 1. At 2 days of culture, the cells were harvested, and the amount of produced matrix metalloproteinase 1 (MMP-1) was quantified using an ELISA method. The measurement results were calculated relative to 100 for the non-UV-irradiated control group not treated with the test material. The positive control group was treated with retinoic acid (RA, Sigma Co.).

[4] = tested on: human HaCaT keratinocyte monolayer culture system; test: Inhibition of reactive oxygen species production after UVB (DCFH-DA fluorescence); assay type: cell-based
Protocol: Antioxidative effect of the ginseng flower extract and the ginseng seed extract was investigated by comparing the capacity of removing reactive oxygen species (ROS) produced in cells in response to UV radiation. The positive control group for the ginseng flower extract was treated with vitamin C (Sigma Co.), which is commonly used to compare antioxidative effect. And, the control group was left untreated. A human HaCaT keratinocyte monolayer culture system (P. Boukamp, German Cancer Research Center, Heidelberg, Germany) was treated with UV (UVB 30 mJ/cm^2) and then with the extract prepared in Example 1 at 10 ppm, 50 ppm and 100 ppm. Then, 2′,7′-dichlorodihydrofluorescein diacetate (DCFH-DA; Molecular Probes, Inc.) was measured with a fluorescence plate reader. Production of ROS was calculated relative to the UV-untreated control group. The positive control group for the ginseng seed extract was treated with Trolox (Aldrich Co.), which is commonly used to compare antioxidative effect. And, the control group was left untreated. […] Then, DCFH-DA (Molecular Probes, Inc.) was measured with a fluorescence plate reader. Inhibition of ROS production was calculated relative to the UV-treated control group.

[5] = tested on: type I procollagen in human fibroblasts; test: Type I procollagen assay (ELISA); assay type: cell-based; conditions: 10 ng/mL, 3 days; positive control set to 100
Protocol: Human fibroblasts were cultured in a 12-well culture plate at a concentration of 10 ^5 cells/well, and then the medium was replaced with media containing 1 ppm, 10 ppm and 50 ppm of the ginseng flower extract prepared in Example 1 or with media containing 1 ppm and 10 ppm of the ginseng seed oil prepared in Example 2 or the ginseng seed residue extract prepared in Example 3, as shown in Table 4. At 3 days of culture, the cells were harvested, and the amount of the produced type I procollagen was quantified using an ELISA method. The measurement results were calculated relative to 0 for the control group containing neither the ginseng flower extract nor the ginseng seed extract and 100 for the positive control group (human transforming growth factor-β1 (TGF-β1, Roche Co.)).

[6] = tested on: Human normal fibroblasts; test: Inhibition of oxidative damage of DNA by single cell gel electrophoresis (comet assay), H2O2 challenge; assay type: cell-based; conditions: 10 ppm
Protocol: Human normal fibroblasts were cultured for 24 hours and treated with varying concentrations of the ginseng flower extract prepared in Example 1, the ginseng seed oil prepared in Example 2, the ginseng seed residue extract prepared in Example 3 and vitamin E. After 12 hours, the cells were treated with the positive control H2O2 (final concentration: 10^−3 M), stained by electrophoresis, and then observed with a fluorescence microscope. The image analyzer Komet 3.1 (Kinetic Imaging, England) was used to analyze the tail length (μm) resulting from the digestion of DNA in each of 25 cells.

Molecule: OC[C@H]1O[C@@H](Oc2ccc(O)cc2)[C@H](O)[C@@H](O)[C@@H]1O [Arbutin, arbutin]
- inhibition at 100 ppm [1]: 51%

Molecule: Oc1ccc(O)cc1 [Hydroquinone, hydroquinone]
- Skin color brightness (ΔL*) [2]: 1.89 ± 0.15

Molecule: CC1=C(/C=C/C(C)=C/C=C/C(C)=C/C(=O)O)C(C)(C)CCC1 [RA, retinoic acid]
- MMP-1 biosynthesis (%) [3]: 45%

Molecule: Cc1c(C)c2c(c(C)c1O)CCC(C)(C(=O)O)O2 (centres unmarked) [Trolox]
- Inhibition of ROS production (%) ([4]; UVB 30 mJ/cm^2, 0.1 mM, relative to UV-treated control): 42.7%

Molecule: O=C1O[C@H]([C@@H](O)CO)C(O)=C1O [vitamin C]
- ROS production (%) ([4]; UVB 30 mJ/cm^2, 100 μM, relative to UV-untreated control = 100 (UVB alone 161)): 72%

Molecule: TGF-β1: human transforming growth factor-β1 (Roche Co.), positive control
- Type I procollagen biosynthesis (%) [5]: 100%

Molecule: vitamin E
- Tail length (μm) ([6]; 12 h before H2O2 10^-3 M, control 112.4): 68.9 μm
- Inhibition (%) ([6]; inhibition of oxidative DNA damage (tail length) vs control): 38.7%
